Results: patent publication US20160136071A1, “Topical bimatoprost for promoting hair growth containing formulations” (priority 2013, published 2016)

Tests used:
[1] = system: lashes and adjacent hairs; assay: Daily-practice observation of lashes in glaucoma patients treated with bimatoprost in one eye; assay type: in vivo, human
Source text: In the course of treating patients having glaucoma, treatment may only be appropriate in one eye. […] The lash appearance on the lids of the treated eye would have appeared quite attractive if it represented a bilateral phenomenon. Because of its asymmetric nature, the long lashes on one side could be construed as disturbing from a cosmetic standpoint. Because of the very unusual appearance a systematic examination of other patients who were taking bimatoprost in only one eye was made. It soon became apparent that this altered appearance was not an isolated finding. […] Definite differences could be identified to varying degrees in the lashes and adjacent hairs of all patients who were taking the drug on a unilateral basis for longer than 6 months. These findings were totally unexpected and surprising.
The changes in the lashes after topical application of bimatoprost were apparent on gross inspection in several patients once attention was focused on the issue. In those with light colored hair and lashes, the differences were only seen easily with the aid of the high magnification and lighting capabilities of the slit lamp biomicroscope. In the course of a glaucoma follow up examination, attention is generally immediately focused on the eye itself. […]

[2] = powder, cited from earlier work
[3] = system: lashes and hair around the eyes; assay: Study of lashes and hair around the eyes of glaucoma patients administering bimatoprost in only one eye (slit lamp biomicroscope); assay type: in vivo, human; details: one drop daily of 0.03% ophthalmic solution to one eye
Protocol: A study is initiated to systematically evaluate the appearance of lashes and hair around the eyes of patients who are administering bimatoprost in only one eye. The study involves 10 subjects, 5 male, 5 female, average age 70 years, (ranging from 50-94 years). All patients have glaucoma. Each subject is treated daily by the topical application of one drop of bimatoprost at a dosage of 1.5 µg/ml/eye/day (0.03%, by weight, ophthalmic solution, sold under the names Lumigan® and Latisse® by Allergan, Irvine, Calif., U.S.A.) to the region of one eye by instilling the drop onto the surface of the eye. The region of the fellow control eye is not treated with bimatoprost and served as a control.
In the course of treatment with eye drops, there is typically spontaneous tearing, and excess fluid from the drops and associated tears gathers at the lid margins. In the course of wiping the drug containing fluid from the lid margins and adjacent lid, a thin film of the fluid is routinely spread to contact the adjacent skin of the lid area.
The study is limited to subjects who have administered bimatoprost to one eye for more than 3 months. The mean duration of exposure to bimatoprost prior to assessing the parameter of lash growth between the control and study eye is 129 days (range 90-254 days). Observations are made under high magnification at the slit lamp biomicroscope. Documentation of differences between the control and treatment areas is accomplished using a camera specially adapted for use with the slit lamp biomicroscope. The results of the observations are as follows: Length of lashes: Increased length of eyelashes is regularly observed on the side treated with bimatoprost. The difference in length varies from approximately 10% to as much as 30%. […] In areas where there are a large number of lashes in the control eye, the increased number of lashes in the bimatoprost-treated eye gave the lashes on the treated side a more thickly matted overall appearance. […] These long, thick lash-like hairs were present in the central portion of the lids of several patients in a linear arrangement just above the lash line. Hairs are present at similar locations in the control eyes but are by contrast thinner or more fine in appearance, have less luster and pigment and are more flat against the skin of the lid typical of vellus or intermediate hairs. In several patients, lash-like terminal hairs grow luxuriantly in the medial canthal area in the treated eye. In the corresponding control eye, vellus hairs are seen at the same location. Lash-like hairs are also present in the lateral canthal area of the treated eye but not the control eye in several subjects. […]

CCNC(=O)CCC/C=C\C[C@@H]1[C@@H](/C=C/[C@@H](O)CCc2ccccc2)[C@H](O)C[C@@H]1O [Bimatoprost, (Z)-7-[(1R,2R,3R,5S)-3,5Dihydroxy-2-[(1E,3S)-3-hydroxy-5-phenyl-1-pentenyl]cyclopentyl]-5-N-ethylheptenamide]
Lash appearance in treated eye vs non-treated eye ([1]; glaucoma patient treated in one eye): longer, thicker and fuller in the treated eye than in the non-treated eye
Hypertrichosis in the region of treatment ([1]; patients treated in or around the eye): regularly develop hypertrichosis
solubility in ethyl alcohol ([2]; ethyl alcohol): very soluble
solubility in methyl alcohol ([2]; methyl alcohol): very soluble
solubility in water ([2]; water): slightly soluble
Growth of vellus hair on lids, treated vs control eye ([3]; areas below and lateral to the lower lid): increased in number, appear more robust and are much longer and thicker
Perpendicular angulation of hairs, treated vs control eye ([3]; lash-like hairs above lash line and in canthal areas): leave the surface of the skin at a more acute angle
Number of lashes, treated vs control eye ([3]; mean exposure 129 days, fellow eye untreated): Increased numbers of lashes
Auxiliary lash-like hair growth, treated vs control eye ([3]; several patients): apparent increase in lash-like hair in transitional areas
